From ChEMBL document CHEMBL5154877, “Novel Sphingosine Kinase 1 Inhibitor Suppresses Growth of Solid Tumor and Inhibits the Lung Metastasis of Triple-Negative Breast Cancer” (J Med Chem, 2022) come the findings set out here.

Molecules are shown by their SMILES.

One data set deals with T1, Sphingosine kinase 2 (Homo sapiens, UniProt Q9NRA0).
T1 sequence (Q9NRA0 whole entry): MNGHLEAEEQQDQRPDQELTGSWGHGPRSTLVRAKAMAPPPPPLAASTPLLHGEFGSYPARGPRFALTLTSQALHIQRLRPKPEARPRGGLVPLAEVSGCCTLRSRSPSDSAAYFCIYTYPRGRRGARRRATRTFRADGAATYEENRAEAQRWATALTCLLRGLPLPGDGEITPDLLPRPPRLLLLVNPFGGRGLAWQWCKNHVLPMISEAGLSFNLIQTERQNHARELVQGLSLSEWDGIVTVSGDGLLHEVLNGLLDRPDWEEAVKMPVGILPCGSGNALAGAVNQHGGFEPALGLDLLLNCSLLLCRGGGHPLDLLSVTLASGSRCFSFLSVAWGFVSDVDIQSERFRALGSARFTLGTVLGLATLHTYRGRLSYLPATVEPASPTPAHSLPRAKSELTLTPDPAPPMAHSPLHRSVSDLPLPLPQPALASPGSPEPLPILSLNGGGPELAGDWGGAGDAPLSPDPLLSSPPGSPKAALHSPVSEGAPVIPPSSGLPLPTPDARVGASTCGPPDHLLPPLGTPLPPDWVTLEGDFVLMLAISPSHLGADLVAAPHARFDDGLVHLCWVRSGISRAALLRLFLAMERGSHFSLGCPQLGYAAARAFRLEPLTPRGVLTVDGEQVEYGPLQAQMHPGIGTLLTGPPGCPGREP

A short description of data set [1]: Clearance in mouse at 2 mg/kg, iv. Particulars: in vivo. The format is ADME, organism-based.
Data set [2] in a line: AUClast in mouse at 2 mg/kg, iv. The data set is classed as ADME, organism-based. Further details: time 0 - last, dose 2 mg/kg, route iv. The settings on record: in vivo.
Data set [3] is described as follows: Oral bioavailability in mouse at 20 mg/kg. The format is ADME, organism-based. Particulars: in vivo.
Data set [4] can be described thus: Tmax in mouse at 20 mg/kg, po. The format is ADME, organism-based. Particulars: in vivo.
The nature of data set [5]: AUClast in mouse at 20 mg/kg, po. The data set is classed as ADME, organism-based. Further details: time 0 - last, dose 20 mg/kg, route po. The settings on record: in vivo.
Data set [6] can be described thus: Half life in mouse at 2 mg/kg, iv. The data set is classed as ADME, organism-based. The settings on record: in vivo.
A short description of data set [7]: Cmax in mouse at 20 mg/kg, po. The format is ADME, organism-based. Further details: dose 20 mg/kg, route po. Particulars: in vivo.
A short description of data set [8]: Half life in mouse at 20 mg/kg, po. The format is ADME, organism-based. Particulars: in vivo.

The term IC50 denotes the concentration needed to halve the response being measured. Low readings indicate inhibition by little substance, high ones a need for much substance. In turn, `Cc1cc(CS(=O)(=O)c2ccc([N+](=O)[O-])cc2)cc(OCc2ccc(CN3CCC[C@@H]3CO)cc2)c1` had an IC50 against Sphingosine kinase 2 above 10 µM.
The same measure, in the same setting: with `Cc1cc(CS(=O)(=O)c2ccccc2)cc(OCc2ccc(CN3CCCCC3CO)cc2)c1` (centres undefined) the figure was above 10 µM.
The molecule `Cc1cc(CS(=O)(=O)c2ccccc2)cc(OCc2ccc(CN(C)CCO)cc2)c1` displayed an IC50 against Sphingosine kinase 2 above 10 µM.
On the same count and under the same terms, with `O=S(=O)(Cc1cc(OCc2ccc(CN3CCC[C@@H]3CO)cc2)cc(C(F)(F)F)c1)c1ccccc1` the figure was above 10 µM.
For orientation: clearance means a measure of how efficiently the substance is removed, as volume per time. A lower clearance goes with a low capacity for elimination. Broadly, the AUC(0-t) is the area under the concentration-time curve up to a stated or last time point. Low readings indicate low exposure, high ones high exposure. For orientation: bioavailability means dose-corrected exposure relative to a reference, in per cent. Low values mean little systemic uptake, high ones much systemic uptake. Usually Tmax stands for the time from dosing to the highest level. In general, half-life refers to how long it takes for the measured level to halve. Read a low half-life as rapid decline. For orientation: Cmax means the highest concentration seen after dosing. The molecule `Cc1cc(CS(=O)(=O)C2CC2)cc(OCc2ccc(CN3CCC[C@@H]3CO)cc2)c1` came in with an IC50 against Sphingosine kinase 2 above 10 µM. Besides, the clearance in data set [1] was 164 mL/min/kg. Moreover, the values for the AUC(0-t) in data set [2] and in data set [5] were 201 ng·h/mL and 100 ng·h/mL, respectively. In data set [3], this molecule displayed a bioavailability of 4.95%. For the same molecule, the Tmax in data set [4] was 0.25 h. Also, the half-life in data set [6] and in data set [8] was 1.79 h each time. The same molecule returned a Cmax in [7] of 83.6 ng/mL.
As to `Cc1cc(CS(=O)(=O)c2ccccc2)cc(OCCCCCCCN2CCC[C@@H]2CO)c1`, the IC50 at Sphingosine kinase 2 is above 10 µM.
